This is an account of results in ChEMBL document CHEMBL1201862, “PubChem BioAssay data set” (2004).

Usually IC50 stands for the concentration at which inhibition is half-maximal. Usually AC50 stands for the concentration at which the activity in the assay is half-maximal.

Test [1] concerns the target T1, Corticotropin-releasing factor receptor 2/Corticotropin-releasing factor-binding protein (Homo sapiens, UniProt P24387+Q13324).
T1 sequence (Q13324 whole entry): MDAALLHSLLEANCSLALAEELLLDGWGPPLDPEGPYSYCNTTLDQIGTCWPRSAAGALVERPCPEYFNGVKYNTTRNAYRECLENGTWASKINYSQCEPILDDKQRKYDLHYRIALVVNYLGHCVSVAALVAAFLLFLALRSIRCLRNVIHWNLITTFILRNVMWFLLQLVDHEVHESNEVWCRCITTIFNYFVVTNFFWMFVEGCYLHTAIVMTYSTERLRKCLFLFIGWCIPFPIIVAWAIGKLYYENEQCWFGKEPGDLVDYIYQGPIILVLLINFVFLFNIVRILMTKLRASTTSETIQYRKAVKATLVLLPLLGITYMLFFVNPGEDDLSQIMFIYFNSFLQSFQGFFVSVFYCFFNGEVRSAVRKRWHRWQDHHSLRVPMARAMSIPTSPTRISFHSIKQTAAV
T1 sequence (P24387 whole entry): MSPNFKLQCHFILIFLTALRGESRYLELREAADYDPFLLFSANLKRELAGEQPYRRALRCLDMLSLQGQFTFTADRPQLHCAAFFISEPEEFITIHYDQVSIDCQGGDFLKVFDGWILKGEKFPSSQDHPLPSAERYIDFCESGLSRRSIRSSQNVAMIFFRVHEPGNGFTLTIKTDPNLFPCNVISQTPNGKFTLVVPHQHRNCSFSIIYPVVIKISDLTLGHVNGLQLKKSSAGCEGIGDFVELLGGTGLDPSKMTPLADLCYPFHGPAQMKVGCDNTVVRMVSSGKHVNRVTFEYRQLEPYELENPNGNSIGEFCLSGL
As to the kind of experiment: activators of CRF receptor 2 with binding protein – uHTS hits, confirmation (AID 602473). In kind it is functional. Conditions: read-out: EC50_Mean.

The target in test [2] is Runt-related transcription factor 1/Core-binding factor subunit beta (Homo sapiens, UniProt Q01196+Q13951). As to the kind of experiment: Confirmation of compounds inhibiting the binding between the RUNX1 Runt domain and CBFb-SMMHC via a fluorescence resonance energy transfer (FRET) assay. [Related pubchem assays (depositor defined):AID1434, AID1438, AID1496, AID1550, AID1645]. The format is protein assay.
Runt-related transcription factor 1/Core-binding factor subunit beta, sequence (Q01196 whole entry, the tested form may be a part): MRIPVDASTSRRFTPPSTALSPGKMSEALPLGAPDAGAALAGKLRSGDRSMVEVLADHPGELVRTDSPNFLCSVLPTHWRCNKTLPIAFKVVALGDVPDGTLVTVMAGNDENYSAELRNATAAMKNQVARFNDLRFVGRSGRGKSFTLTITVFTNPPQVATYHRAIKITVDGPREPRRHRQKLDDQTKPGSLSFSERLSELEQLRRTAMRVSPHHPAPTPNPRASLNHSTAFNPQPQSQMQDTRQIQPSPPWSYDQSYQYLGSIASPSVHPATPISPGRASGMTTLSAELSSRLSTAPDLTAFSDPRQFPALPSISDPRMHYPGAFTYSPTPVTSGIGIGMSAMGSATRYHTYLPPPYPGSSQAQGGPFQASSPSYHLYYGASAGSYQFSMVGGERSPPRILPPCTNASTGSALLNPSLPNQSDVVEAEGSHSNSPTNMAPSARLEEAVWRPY
Runt-related transcription factor 1/Core-binding factor subunit beta, sequence (Q13951 whole entry, the tested form may be a part): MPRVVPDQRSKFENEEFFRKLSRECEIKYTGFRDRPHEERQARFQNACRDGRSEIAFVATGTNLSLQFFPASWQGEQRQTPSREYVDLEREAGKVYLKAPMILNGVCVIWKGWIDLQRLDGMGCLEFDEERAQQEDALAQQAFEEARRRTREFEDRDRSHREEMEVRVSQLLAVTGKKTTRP

Test [3] deals with T2, Heat shock factor protein 1 (Mus musculus, UniProt P38532).
T2 sequence (P38532 whole entry): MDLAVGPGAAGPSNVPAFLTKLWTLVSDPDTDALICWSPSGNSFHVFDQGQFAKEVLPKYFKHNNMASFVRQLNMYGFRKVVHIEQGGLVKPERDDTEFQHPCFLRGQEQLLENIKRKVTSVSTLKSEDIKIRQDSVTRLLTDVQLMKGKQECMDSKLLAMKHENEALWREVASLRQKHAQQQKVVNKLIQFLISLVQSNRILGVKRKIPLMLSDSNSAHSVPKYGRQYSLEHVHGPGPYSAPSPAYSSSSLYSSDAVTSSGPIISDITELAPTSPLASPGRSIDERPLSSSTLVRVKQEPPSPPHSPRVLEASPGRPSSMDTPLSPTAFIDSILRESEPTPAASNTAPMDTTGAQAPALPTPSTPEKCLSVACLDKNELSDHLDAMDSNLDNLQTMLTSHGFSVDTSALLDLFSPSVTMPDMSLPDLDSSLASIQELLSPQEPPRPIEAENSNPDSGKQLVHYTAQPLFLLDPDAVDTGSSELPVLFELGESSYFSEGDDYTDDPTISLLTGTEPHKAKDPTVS
As to the kind of experiment: inhibition of MG132-induced HSE-luciferase signal, confirmation, cell-based, NIH3T3, luminescence, dose retest (AID 2382).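 Note: NIH3T3 fibroblasts with HSF1-driven luciferase reporter stressed by proteasome inhibitor MG132; luminescence from HSF1-driven luciferase expression after 8 hours of MG132 stress.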 The format is functional.

Test [4] concerns T-cell. As to the kind of experiment: inhibitors of CD8+ T cell–vesicle binding, dose response, mouse 2C CD8+ T cells, flow cytometry (AID 485284). The format is functional. For orientation: In flow cytometry, cells or beads pass a laser one at a time.
The target in test [5] is Dual specificity protein phosphatase 3 (Homo sapiens, UniProt P51452). As to the kind of experiment: SAR VHR1 Fluorescent Assay for In Vitro dose response studies Set 2. [Related pubchem assays (depositor defined):AID1654, AID1661, AID1878]. The format is functional.
Dual specificity protein phosphatase 3, sequence (P51452 whole entry): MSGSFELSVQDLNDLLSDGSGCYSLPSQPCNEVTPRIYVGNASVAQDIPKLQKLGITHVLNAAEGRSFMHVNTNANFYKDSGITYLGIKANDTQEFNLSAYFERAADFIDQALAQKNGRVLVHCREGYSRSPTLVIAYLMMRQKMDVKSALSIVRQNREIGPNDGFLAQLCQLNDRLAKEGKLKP
Test [6] concerns the target Tyrosine-protein phosphatase non-receptor type 7 (Homo sapiens, UniProt P35236). As to the kind of experiment: SAR analysis of chemical inhibitors of HePTP using a Fluorescent assay - Set 2. [Related pubchem assays (depositor defined):AID1059, AID1077, AID1661, AID2085, AID521]. In kind it is functional.
The nature of test [7]: Vero E6 cell cytotoxicity, dose response, cytotoxicity control for non-replicating M. tuberculosis project, secondary assay (AID 492998). The format is functional, VeroE6. Conditions: Vero C1008.
A short description of test [8]: cells. In kind it is functional.
Test [9] is described as follows: HepG2 cell cytotoxicity, dose response, cytotoxicity control for Shn3 inhibitor project, CellTiter-Glo, cherry-picked (AID 624134). The format is functional, cell-based. (In general: ATP-based viability assays read luminescence as a measure of living cells.)
Test [10] concerns the target T3, Insulin-degrading enzyme (Homo sapiens, UniProt P14735).
T3 sequence (P14735 whole entry): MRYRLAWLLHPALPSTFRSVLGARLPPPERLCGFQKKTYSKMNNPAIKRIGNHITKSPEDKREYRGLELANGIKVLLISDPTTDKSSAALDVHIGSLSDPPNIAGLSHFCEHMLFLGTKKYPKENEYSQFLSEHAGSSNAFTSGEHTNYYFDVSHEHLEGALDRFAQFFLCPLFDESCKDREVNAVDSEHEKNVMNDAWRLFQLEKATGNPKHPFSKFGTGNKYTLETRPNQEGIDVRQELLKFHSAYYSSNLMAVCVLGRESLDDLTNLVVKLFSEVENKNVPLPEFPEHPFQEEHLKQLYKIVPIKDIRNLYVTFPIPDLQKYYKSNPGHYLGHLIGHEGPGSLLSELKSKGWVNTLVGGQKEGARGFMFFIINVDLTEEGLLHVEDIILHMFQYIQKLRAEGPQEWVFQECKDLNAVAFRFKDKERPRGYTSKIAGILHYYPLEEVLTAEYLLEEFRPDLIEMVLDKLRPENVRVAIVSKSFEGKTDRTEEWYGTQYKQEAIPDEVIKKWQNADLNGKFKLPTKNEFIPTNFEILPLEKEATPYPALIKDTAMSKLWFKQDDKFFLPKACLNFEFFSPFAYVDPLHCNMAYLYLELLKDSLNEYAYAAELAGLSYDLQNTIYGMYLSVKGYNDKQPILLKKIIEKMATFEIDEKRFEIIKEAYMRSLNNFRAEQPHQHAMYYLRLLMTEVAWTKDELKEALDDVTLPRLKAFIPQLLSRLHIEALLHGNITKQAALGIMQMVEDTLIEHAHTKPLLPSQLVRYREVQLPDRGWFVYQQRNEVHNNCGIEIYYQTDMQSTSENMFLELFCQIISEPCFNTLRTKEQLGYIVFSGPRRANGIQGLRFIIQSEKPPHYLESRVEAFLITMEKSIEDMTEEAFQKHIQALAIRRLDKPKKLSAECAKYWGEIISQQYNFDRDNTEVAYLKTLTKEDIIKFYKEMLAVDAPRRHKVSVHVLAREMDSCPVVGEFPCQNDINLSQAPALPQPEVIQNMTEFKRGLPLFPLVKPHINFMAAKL
As to the kind of experiment: activators of recombinant IDE enzyme, dose response, counter-screen for IDE activator project, biochemical, fluorescence polarization (AID 588681).

Test [11] is described as follows: Shn3 3'UTR reporter inhibitors, dose response, cell-based, Clone20 osteoblasts, firefly luciferase, cherry-picked (AID 624132).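 Note: firefly luciferase luminescence from reporter carrying the Shn3 3'UTR in osteoblasts.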 In kind it is functional.
Test [12] is described as follows: microbe, parasite or virus in culture. The format is functional. To be noted: Mycobacterium tuberculosis.
A short description of test [13]: control 3'UTR Renilla luciferase suppression, dose response, counter-screen for Shn3 inhibitor project, cell-based, Clone20-Shn3RL, cherry-picked (AID 624133). The format is functional.
Test [14] has as its target T4, Ubiquitin-conjugating enzyme E2 N (Homo sapiens, UniProt P61088).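 Note: Dose-response confirmation in a TR-FRET assay detecting UBC13-driven polyubiquitin chain formation, inhibition measured.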
T4 sequence (P61088 whole entry): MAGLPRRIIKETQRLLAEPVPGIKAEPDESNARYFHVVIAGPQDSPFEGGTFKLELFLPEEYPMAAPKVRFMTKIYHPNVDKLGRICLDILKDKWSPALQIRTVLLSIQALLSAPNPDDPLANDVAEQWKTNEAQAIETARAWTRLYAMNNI
In kind it is functional.

Test [15] in a line: THP-1 cell cytotoxicity, dose response, cytotoxicity control for non-replicating M. tuberculosis project (AID 489025). The format is functional.
A short description of test [16]: HepG2 cell cytotoxicity, dose response, cytotoxicity control for non-replicating M. tuberculosis project (AID 489018). The format is functional. To be noted: Mycobacterium tuberculosis.
Test [17] has as its target T3, Insulin-degrading enzyme. Briefly: activators of endogenous IDE in HEK cells, dose response, cell-based, fluorescence polarization (AID 588439). The format is functional. For orientation: Fluorescence polarisation rises when a labelled molecule tumbles more slowly, as on binding a larger partner.
Test [18] deals with HEK293. Briefly: optical interference in Abeta FP readout, dose response, artefact control for IDE activator project, biochemical, fluorescence polarization (AID 588442). The format is functional, cell-based. Conditions: Homo sapiens.
Test [19] has as its system HEK293. Briefly: HEK cell cytotoxicity by LDH release, dose response, cytotoxicity control for IDE activator project, fluorescence, HEK cells (AID 588440).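 Note: cytotoxicity by LDH release measuring loss of membrane integrity.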 In kind it is functional, cell-based. Conditions: Homo sapiens.

The structures appear in SMILES notation. Calls of active or inactive are those of the source.

Tyrosine-protein phosphatase non-receptor type 7, sequence (P35236 whole entry): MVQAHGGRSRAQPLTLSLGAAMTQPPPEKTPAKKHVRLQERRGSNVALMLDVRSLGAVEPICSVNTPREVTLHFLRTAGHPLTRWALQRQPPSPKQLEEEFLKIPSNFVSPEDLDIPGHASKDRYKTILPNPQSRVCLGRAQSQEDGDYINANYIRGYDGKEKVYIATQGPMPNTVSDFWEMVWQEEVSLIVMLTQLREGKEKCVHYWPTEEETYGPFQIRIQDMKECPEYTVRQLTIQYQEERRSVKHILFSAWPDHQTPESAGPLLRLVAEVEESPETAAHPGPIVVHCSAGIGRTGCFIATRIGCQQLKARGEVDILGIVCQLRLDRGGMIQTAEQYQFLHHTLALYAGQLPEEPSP

As for `CCS(=O)(=O)Nc1ccc(-c2nc3cccnc3s2)cc1`, the values for the EC50 in test [1] and in test [3] were > 53 µM (inactive) and 92.9 µM (active), respectively. Also, the IC50 in [2] is 12.8 µM (active).

Regarding `Cc1ccc(/C=N/NC2=NC(=O)C(CC(=O)Nc3ccc(Cl)cc3)S2)o1` (centres undefined), the EC50 in [4] was 15.2 µM (active).

Regarding `CC(C)(C)c1cc(C(=S)NCc2ccc(F)c(C(F)(F)F)c2)cc(C(C)(C)C)c1`, the IC50 is 67.4 µM (active) in test [5] and 27 µM (active) in test [6].

With `CCCCCCCNC(=O)C1(CC2CC(c3cccc(Br)c3)=NO2)CCNCC1` (centres undefined), the CC50 in [7] was 15.2 µM (active); in test [12] it was 6.71 µM (active); in test [15], 6.82 µM (active); in test [16], 5.99 µM (active). Further, the figures for the half-inhibitory concentration (IC50) in [8], in [14] and in test [19] were 17.2 µM (active), > 20 µM (inactive) and 7.51 µM (active), respectively. Moreover, the AC50 is 14.1 µM (active) in test [9], 11.7 µM (active) in test [11] and 16.5 µM (active) in [13]. Further, the EC50 in [10] was > 54.7 µM (inactive); in test [17], 54.5 µM (inactive); in [18], > 55.9 µM (inactive).
